How the values were obtained:
Assay in all cases: relative viability (nuclei count vs DMSO), 5 days (fraction); higher = more cells survive
[1] = compound: C[C@@H](N)c1ccc(C(=O)Nc2ccnc3[nH]ccc23)cc1 + O=C(c1cc(Cc2n[nH]c(=O)c3ccccc23)ccc1F)N1CCN(C(=O)C2CC2)CC1 [Olaparib] (partner 8 µM)
How it was run: (§1)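 Dosing by pin tool came one day after lung cancer cell lines were seeded in 1536-well plates, using either one drug or a fixed anchor-drug dose plus five library-drug doses (not always all listed) in √10 steps. After 5 days, nuclei were counted on 4× images. Relative viability is treated-well nuclei count divided by vehicle-well nuclei count, and values are medians of duplicate plates.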

[2] = compound: C[C@@H](N)c1ccc(C(=O)Nc2ccnc3[nH]ccc23)cc1 + Nc1nc2[nH]cc(CCc3ccc(C(=O)N[C@@H](CCC(=O)O)C(=O)O)cc3)c2c(=O)[nH]1 [Pemetrexed] (partner 0.2 µM)
How it was run: as §1

[3] = compound: C1CNCCC1C2=CC(=NN2)C3=CC=NC=C3 + O=C(c1cc(Cc2n[nH]c(=O)c3ccccc23)ccc1F)N1CCN(C(=O)C2CC2)CC1 [Olaparib] (partner 8 µM)
How it was run: as §1

[4] = compound: C[C@@H](N)c1ccc(C(=O)Nc2ccnc3[nH]ccc23)cc1 + N=C(N)NC(=N)NCCc1ccccc1 [Phenformin] (partner 250 µM)
How it was run: as §1

Cell Line | relative viability ([1]; first compound 0.04 µM) | relative viability ([1]; first compound 0.1265 µM) | relative viability ([1]; first compound 0.4 µM) | relative viability ([1]; first compound 1.265 µM) | relative viability ([1]; first compound 4 µM) | relative viability ([2]; first compound 0.04 µM) | relative viability ([2]; first compound 0.1265 µM) | relative viability ([2]; first compound 0.4 µM) | relative viability ([2]; first compound 1.265 µM) | relative viability ([2]; first compound 4 µM) | relative viability ([3]; first compound 0.08 µM) | relative viability ([3]; first compound 0.8 µM) | relative viability ([3]; first compound 2.53 µM) | relative viability ([3]; first compound 8 µM) | relative viability ([4]; first compound 0.04 µM) | relative viability ([4]; first compound 0.1265 µM) | relative viability ([4]; first compound 0.4 µM) | relative viability ([4]; first compound 1.265 µM) | relative viability ([4]; first compound 4 µM)
NCI-H1734 | 0.642 | 0.591 | 0.652 | 0.559 | 0.45 | 0.405 | 0.419 | 0.385 | 0.362 | 0.39 | 0.581 | 0.639 | 0.598 | 0.635 | 0.355 | 0.383 | 0.431 | 0.282 | 0.397
NCI-H1993 | 1.4 | 1.14 | – | 1.02 | – | 0.652 | 0.653 | – | 0.632 | 0.642 | 0.937 | 0.918 | 1.02 | 1.21 | 0.597 | 0.501 | 0.528 | 0.502 | 0.547
LK-2 | 0.732 | 0.658 | 0.746 | 0.482 | 0.864 | 0.345 | 0.264 | 0.22 | 0.282 | 0.362 | – | 0.872 | 0.897 | 0.707 | 0.325 | – | 0.744 | – | 0.636
HCC-78 | 1.05 | 0.964 | 1.16 | 1.4 | 1.08 | 0.942 | 0.928 | 0.906 | 0.98 | 0.963 | 0.821 | – | 0.985 | 0.748 | 1.05 | 0.818 | 0.855 | 0.797 | 0.797
NCI-H2405 | – | 0.863 | 0.741 | 0.587 | 0.337 | – | 1.09 | 0.918 | 0.567 | 0.306 | 0.843 | 0.952 | 0.894 | 0.831 | 0.176 | 0.449 | 0.369 | 0.264 | 0.218
HOP-62 | 0.43 | 0.381 | 0.419 | – | 0.47 | 0.286 | 0.344 | 0.252 | 0.298 | 0.288 | 0.234 | 0.386 | 0.275 | 0.47 | 0.607 | 0.609 | 0.636 | 0.552 | 0.607
NCI-H650 | – | 0.385 | 0.433 | – | 0.325 | – | 0.932 | 0.809 | – | 0.614 | 0.4 | 0.424 | 0.376 | 0.405 | – | 0.424 | 0.46 | 0.203 | 0.411
NCI-H358 | 0.625 | 0.628 | 0.69 | 0.696 | 0.479 | 0.183 | 0.189 | 0.18 | 0.165 | 0.16 | 0.48 | 0.691 | 0.648 | 0.525 | 0.374 | 0.358 | 0.314 | 0.32 | 0.246
BEN | 1.04 | 1.08 | 1.11 | 1.27 | 0.542 | 0.556 | 0.711 | 0.701 | 0.877 | 0.634 | 1.01 | 1.09 | 1.2 | 0.967 | 0.279 | 0.265 | 0.258 | 0.267 | 0.248
